{
  "source": "paper PMC10388311",
  "about": "“Innovative Strategy toward Mutant CFTR Rescue in Cystic Fibrosis: Design and Synthesis of Thiadiazole Inhibitors of the E3 Ligase RNF5” (Journal of Medicinal Chemistry, 2023)",
  "key": {"[1]": {"test": "Solubility and aggregation in PBS buffer by NMR (SPAM filter, 1H 1D and WaterLOGSY)", "format": "physicochemical", "conditions": "PBS pH 7.5, 1 μM ZnCl2, 1 mM DTT, 10% D2O, 1% DMSO-d6; for solubility: PBS buffer, aqueous buffer, kinetic from dmso stock, theoretical concentration 20 μM, read-out: solubility in PBS buffer by NMR, 20 μM; for aggregation in PBS buffer by NMR: WaterLOGSY; for solubility at 50 µM: theoretical concentration 50 μM; for solubility at 100 µM: theoretical concentration 100 μM", "source_text": "Under these circumstances, it was decided to explore the solubility of all the synthetized compounds, regardless of their biological activities, to find a suitable candidate for the validation of our working hypothesis, i.e., that the compounds exert their activities by directly binding to RNF5. For that, we first calculated the predicted octanol/water partition coefficient (log Po/w) and the predicted aqueous solubility (log S) of all the analogues by QikProp (Schrödinger Release 2022-1: QikProp, Schrödinger, LLC, New York, NY, 2021, Table S1). […] To shrink down the number of compounds for solubility experiments, just the ones that had −2.0 < log Po/w < 6 and −6.5 < log S <0.5 values were selected. Among them, the PBS solubility was determined for five representative analogues: (i) 12 and 29 bearing different substituents on the benzyl group A; (ii) 34 and 40 showing the replacement of rings B and C with pyridine-4-yl moieties; (iii) 42 in which the N-phenylbenzamidine portion was replaced with a pyridine-2-yl moiety (Table 1).\nAll the NMR experiments were recorded at 298 K using a 5 mm CryoProbe QCI ^1H/^19F–^13C/^15N–D quadruple resonance, a shielded z-gradient coil, and an automatic sample changer SampleJet NMR system with temperature control. The solubility of the compounds were evaluated by ^1H 1D experiments and aggregation by WaterLOGSY, testing the compounds in buffer PBS pH 7,5, 1 μM ZnCl2, 1 mM DTT, 10% D2O (for the lock signal), and 1% DMSO-d6 at the theoretical concentrations of 20, 50, and 100 μM in the presence of 200 μM 4-trifluoromethyl benzoic acid (internal reference). For all samples, a 1D ^1H NMR experiment was recorded, the water suppression was obtained using the standard NOESY (nuclear Overhauser effect spectroscopy) preset Bruker pulse sequence, with 64k data points, a spectral width (sw) of 30 ppm, 64 scans, acquisition time (aq) of 1.835 s, a relaxation delay (d1) of 4 s, and a mixing time of 10 ms. […] The data were multiplied by an exponential window function with 1 Hz line broadening prior to Fourier transformation. For NMR binding experiments, the compounds were tested at 50 μM in buffer PBS pH 7.5, 1 μM ZnCl2, 1 mM DTT, 10% D2O (for the lock signal), and 1% DMSO-d6 in the absence and in the presence of 3 μM RNF5. WaterLOGSY experiments were recorded with the same parameters used in solubility assays, but with a higher number of scans (512); STD experiments were recorded with 128 scans, with two on (0.7 and 1 ppm) and one off (−50 ppm) resonance spectra, a Gaussian-shaped train pulse of 50 ms each was employed, with a total saturation time of the protein envelope of 5, 3, 2, 1.5, 1, or 0.5 s. A T1ρ filter of 2 ms was employed in STD experiments to eliminate the background signals from the protein. The STD spectrum was obtained by subtraction of the on-resonance spectrum from the off-resonance spectrum. Subtraction was performed by phase cycling to minimize artifacts arising from magnet and temperature instabilities."}, "[2]": {"tested_on": "ATG4B-mediated basal autophagy in F508del-CFTR-expressing CFBE41o– cells", "test": "Labeling of autophagic vacuoles with monodansylcadaverine (MDC)", "format": "cell-based, human", "conditions": "test compounds 5 μM 24 h; torin-1 20 nM and SAR-405 2 μM in the last 3 h", "source_text": "To further support our hypothesis that CFTR rescue following treatment with test compounds was indeed due to RNF5 inhibition, we considered additional biological processes known to be regulated by RNF5 ligase activity. To this aim, we focused our attention on ATG4B, a known regulator of basal autophagy, whose degradation is mediated by RNF5 activity.[54]In vivo ubiquitination experiments previously confirmed that inh-2 inhibits ATG4B degradation, thus increasing the basal level of autophagy.[40] […] We thus evaluated the effect of inh-2 analogues on induction of the autophagy pathway. To this aim, we monitored the formation of autophagic vacuoles in F508del-CFTR-expressing CFBE41o^– cells (Figure 8) by using the autolysosome marker monodansylcadaverine (MDC). MDC accumulates inside autophagosomes. After fusion of autophagosomes with lysosomes, MDC fluorescence increases due to the acidic environment.[55] Therefore, F508del-CFTR-expressing CFBE41o^– cells were treated for 24 h with test compounds (5 μM), VX-809 (1 μM), or DMSO alone (vehicle). In the last 3 h of incubation, we added torin-1 (20 nM), a known autophagy inducer, and SAR-405 (2 μM), a potent inhibitor of the autophagic pathway. The cells were then loaded with MDC and evaluated by high-content confocal imaging to detect signal spots (corresponding to autophagic vacuoles) in each cell.\nCFBE41o^– cells stably expressing F508del-CFTR and the HS-YFP were plated (50,000 cells/well) on good-quality clear-bottom 96-well black microplates suitable for high-content imaging. After 24 h, cells were treated with test compounds or DMSO (as the negative control). […] After 24 h, cells were incubated with 50 μM MDC (Sigma-Aldrich) in PBS at 37 °C for 10 min.[62] After incubation, cells were washed three times with PBS and immediately analyzed. High-content imaging and data analysis were performed using the Opera Phenix (PerkinElmer) high-content screening system. Wells were imaged in confocal mode using a 40× water-immersion objective. The MDC signal was laser-excited at 405 nm, and the emission wavelengths were collected between 435 and 550 nm. Data analysis of MDC spot number was performed using the Harmony software (ver 4.5) of the Opera Phenix high-content system. Data are expressed as means ± SEM, n = 3 independent experiments. Statistical significance was tested by parametric ANOVA followed by the Dunnet multiple comparisons test (all groups against the control group)."}, "[3]": {"molecular_target": "T1, F508del-CFTR in CFBE41o– cells (Homo sapiens, UniProt Q99942)", "T1 sequence (Q99942 2-180)": "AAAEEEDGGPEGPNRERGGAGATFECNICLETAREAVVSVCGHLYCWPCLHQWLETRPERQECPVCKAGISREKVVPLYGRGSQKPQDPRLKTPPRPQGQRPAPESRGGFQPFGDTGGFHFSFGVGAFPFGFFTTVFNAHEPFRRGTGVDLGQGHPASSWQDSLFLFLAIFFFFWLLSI", "T1 sequence (P13569 with tags, fused parts or gaps DEL508-508 partner)": "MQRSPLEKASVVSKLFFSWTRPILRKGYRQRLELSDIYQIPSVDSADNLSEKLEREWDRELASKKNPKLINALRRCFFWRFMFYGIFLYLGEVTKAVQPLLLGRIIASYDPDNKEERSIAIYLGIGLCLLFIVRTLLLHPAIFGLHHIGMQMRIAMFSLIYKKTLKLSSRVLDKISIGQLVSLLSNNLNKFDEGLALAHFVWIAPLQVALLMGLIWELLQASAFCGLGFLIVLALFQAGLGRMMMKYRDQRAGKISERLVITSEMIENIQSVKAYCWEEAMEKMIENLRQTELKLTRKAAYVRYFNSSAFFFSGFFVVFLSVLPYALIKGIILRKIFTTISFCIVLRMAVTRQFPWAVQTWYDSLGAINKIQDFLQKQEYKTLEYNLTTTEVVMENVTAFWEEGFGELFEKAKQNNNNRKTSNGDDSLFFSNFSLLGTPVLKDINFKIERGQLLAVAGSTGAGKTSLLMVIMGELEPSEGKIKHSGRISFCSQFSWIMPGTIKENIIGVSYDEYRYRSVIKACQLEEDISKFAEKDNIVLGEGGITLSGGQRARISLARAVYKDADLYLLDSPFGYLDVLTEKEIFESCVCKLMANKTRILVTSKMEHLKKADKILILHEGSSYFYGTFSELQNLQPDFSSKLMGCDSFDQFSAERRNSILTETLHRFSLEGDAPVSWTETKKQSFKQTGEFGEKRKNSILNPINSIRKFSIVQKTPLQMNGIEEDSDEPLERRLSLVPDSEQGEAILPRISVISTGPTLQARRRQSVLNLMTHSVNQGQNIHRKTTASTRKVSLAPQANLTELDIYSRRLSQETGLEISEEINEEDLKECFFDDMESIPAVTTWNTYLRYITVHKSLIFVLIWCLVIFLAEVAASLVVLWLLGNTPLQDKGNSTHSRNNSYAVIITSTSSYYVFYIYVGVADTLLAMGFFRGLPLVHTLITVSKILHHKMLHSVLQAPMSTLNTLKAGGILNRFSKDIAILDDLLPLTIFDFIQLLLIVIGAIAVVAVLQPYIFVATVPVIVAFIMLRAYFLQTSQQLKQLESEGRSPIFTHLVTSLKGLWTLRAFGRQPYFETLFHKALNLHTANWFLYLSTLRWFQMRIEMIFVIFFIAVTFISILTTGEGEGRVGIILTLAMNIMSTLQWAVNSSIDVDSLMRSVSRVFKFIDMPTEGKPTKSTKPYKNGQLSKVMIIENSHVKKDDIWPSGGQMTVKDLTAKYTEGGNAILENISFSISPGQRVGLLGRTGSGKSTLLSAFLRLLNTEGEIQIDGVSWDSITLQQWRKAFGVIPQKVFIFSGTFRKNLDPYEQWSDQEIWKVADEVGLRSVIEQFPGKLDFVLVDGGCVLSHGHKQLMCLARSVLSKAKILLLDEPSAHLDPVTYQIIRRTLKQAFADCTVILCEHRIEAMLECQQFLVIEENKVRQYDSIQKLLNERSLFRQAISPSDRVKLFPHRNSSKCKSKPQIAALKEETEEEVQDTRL", "parameters": "method as in PMID 29754957", "conditions": "cited from earlier work"}, "[4]": {"molecular_target": "T1, F508del-CFTR in CFBE41o– cells", "test": "HS-YFP microfluorimetric assay of F508del-CFTR rescue (corrector activity)", "format": "cell-based", "conditions": "CFBE41o– cells co-expressing F508del-CFTR and HS-YFP, 24 h treatment, Figure 5", "description": "As a primary screen, the new thiadiazole derivatives 1–46 (Table 1) were tested for their ability to rescue the F508del-CFTR trafficking defect in CFBE41o^– cells, stably co-expressing F508del-CFTR and the HS-YFP (Figure 5). This cell line has been extensively used by our group, in combination with the microfluorimetric assay based on the HS-YFP, to identify and characterize many CFTR correctors.[39],[47] This assay relies on the hypothesis that RNF5 inhibition results in increased mutant CFTR processing and activity. Therefore, it can easily identify putative RNF5 inhibitors, but not other types of RNF5-binding compounds that could have no effect or have a negative effect on CFTR function, such as RNF5 activators (see analog-1). Thus, we opted for this assay as our primary aim was the identification of RNF5 inhibitors as a possible therapeutic strategy in CF. Twenty-four hours after seeding on 96-well plates, CFBE41o^– cells stably expressing F508del-CFTR and the HS-YFP were treated with test compounds at the desired concentration, one compound per well. Cells treated with vehicle alone (DMSO) and with corrector VX-809 (1 μM), respectively, served as negative and positive controls. At the time of the assay, cells were washed with PBS containing (in […]) 137 NaCl, 2.7 KCl, 8.1 Na2HPO4, 1.5 KH2PO4, 1 CaCl2, and 0.5 MgCl2. Cells were then incubated for 25 min with […] of PBS plus forskolin (20 μM) and VX-770 (1 μM) to maximally stimulate F508del-CFTR. Cells were then transferred to a microplate reader (FluoStar Galaxy; BMG Labtech, Offenburg, Germany) for CFTR activity determination. The plate reader was equipped with high-quality excitation (HQ500/20X: 500 ± 10 nm) and emission (HQ535/30M: 535 ± 15 nm) filters for YFP (Chroma Technology). Each assay comprised a continuous 14 s fluorescence reading and 2 s before and 12 s after injection of […] of an iodide-containing solution (PBS with Cl^– replaced by I^–; final I^– concentration […]). Data were normalized to the initial background-subtracted fluorescence. To determine the I^– influx rate, the final 11 s of the data for each well was fitted with an exponential function to extrapolate initial slope (dF/dt). Reproducibility of results was confirmed by performing three independent experiments. CFBE41o^– cells co-expressing F508del-CFTR and the HS-YFP were reverse-transfected with 50 nM (final concentration) siRNAs (Stealth, Life Technologies) in the presence of lipofectamine 2000 as a transfection agent. The following day, the medium was changed, and the cells were incubated at 37 °C for additional 24 h treated with test compounds at the desired concentration, prior to processing the cells for the YFP-based functional assay."}, "[5]": {"tested_on": "CFBE41o– cells", "test": "Apoptosis assay (Hoechst 33342 / propidium iodide, high-content imaging)", "format": "cell-based, human", "conditions": "24 h, 100 μM", "description": "We performed a preliminary evaluation of the effect of chronic treatment with selected analogues on the proliferation and apoptosis of CFBE41o^– cells (Figure 7). Indeed, RNF5 can modulate cell motility and proliferation by regulating paxillin ubiquitylation and thus its degradation.[53] For the proliferation assay, CFBE41o^– cells stably co-expressing F508del-CFTR and the HS-YFP were treated with test compounds (5 μM), VX-809 (1 μM), or vehicle alone (DMSO) for 48 h. Cell proliferation was then monitored by measuring the area covered by the cells based on the YFP signal. For the apoptosis assay, 24 h after plating, CFBE41o^– cells stably expressing F508del-CFTR were treated with test compounds (5, 20, and 100 μM), VX-809 (1 μM), MG132 (50 μM), or vehicle alone (DMSO) for 24 h. Cell nuclei were then counterstained with Hoechst 33342 and propidium iodide to visualize the total and apoptotic cell count, respectively, and imaged by using an Opera Phenix high-content screening system.\nCFBE41o^– cells stably expressing F508del-CFTR and the HS-YFP were plated at a low density (5000 cell/well) on 96-well plates suitable for high-content imaging. […] Cell proliferation was monitored (by exploiting the YFP signal to determine the area covered by cells) for 48 h using the Opera Phenix (PerkinElmer) high-content screening system. […] Data are expressed as means ± SEM, n = 6. […]"}},
  "note": "Entries after “also recorded” stand apart in the source; their conditions may differ.",
  "data": [
    {"compound": "Cc1ns/c(=N\\C(=N\\c2ccccc2)c2ccccc2)n1-c1ccccc1", "note": "[analog-1, reference compound]", "values": [
      {"measurement": "solubility", "setting": "[1]", "value": "< 5", "unit": "µM"},
      {"measurement": "aggregation in PBS buffer by NMR", "setting": "[1]", "value": "no"},
      {"measurement": "solubility at 50 µM", "setting": "[1]", "value": "<5", "unit": "µM"},
      {"measurement": "solubility at 100 µM", "setting": "[1]", "value": "<5", "unit": "µM"},
      {"measurement": "number of autophagic vacuoles (MDC signal spots)", "setting": "[2]", "value": "significantly decreased"},
      {"measurement": "CFTR corrector activity (in words)", "setting": "[3]", "value": "no activity as a CFTR corrector; also recorded: lack of CFTR corrector activity"}
    ]},
    {"compound": "Cc1ns/c(=N\\C(=N\\c2ccccc2)c2ccccc2)n1Cc1cccc(O)c1", "note": "[Compound 17, (E)-N-((Z)-4-(3-Hydroxybenzyl)-3-methyl-1,2,4-thiadiazol-5(4H)-ylidene)-N′-phenylbenzimidamide]", "values": [
      {"measurement": "F508del-CFTR corrector activity compared with inh-2 (CFTR activity, primary screen)", "setting": "[4]", "value": "increased activity"},
      {"measurement": "solubility", "setting": "[1]", "value": "< 5", "unit": "µM"},
      {"measurement": "aggregation in PBS buffer by NMR", "setting": "[1]", "value": "no"},
      {"measurement": "solubility at 50 µM", "setting": "[1]", "value": "<5", "unit": "µM"},
      {"measurement": "solubility at 100 µM", "setting": "[1]", "value": "<5", "unit": "µM"},
      {"measurement": "cell apoptosis", "setting": "[5]", "value": "markedly increased cell apoptosis"}
    ]}
  ]
}
